Data from US20060229293A1, “Compositions for the treatment of hepatitis C and methods for using compositions for the treatment of hepatitis C” (Addiction Research Institute, Inc., priority 2005, published 2006).

Key:
Type in all cases: in vivo, human
HCV [1] = experiment: Case report, Example 1: HCV positive heroin user given ibogaine HCl; settings: person, 25 mg/kg
Protocol: A person diagnosed as HCV positive and using ½ gram of heroin per day was administered 25 mg/kg of ibogaine HCl. Following the administration of ibogaine, heroin use ceased along with swelling of the liver and pain in the area of the liver.

HCV [2] = experiment: Case report, Example 2: liver enzyme levels in HCV positive after ibogaine HCl; settings: person, 14 mg/kg self-administered
Protocol: A person testing positive for HCV and dependent on heroin and methadone self-administered 14 mg/kg of ibogaine HCl. AST was reduced from pretreatment level of 201 to post treatment level of 25. ALT was reduced from pretreatment level of 410 to post treatment level of 50. GGT level was reduced from 155 to 33.

HCV RNA genotype 1 = experiment: Case report, Example 3: HCV RNA and liver enzymes after an escalating dose regimen of ibogaine HCl
Protocol: A person testing positive for HCV RNA genotype 1, administered the following dose regimen of ibogaine HCl. Subject weighed 79 kg. Doses administered were as total doses and not mg/kg. Day 1: 10 mg ibogaine HCl. Day 2: 20 mg ibogaine HCl. Day 3: 20 mg ibogaine HCl. Day 4: 30 mg ibogaine HCl. Day 5: 50 mg ibogaine HCl. Day 6: 75 mg ibogaine HCl. Day 8: 100 mg ibogaine HCl. Day 10: 150 mg ibogaine HCl. Day 14: 300 mg ibogaine HCl. HCV RNA IU/mL was reduced from 780,000 to 644,000. Pretreatment Alkaline Phosphatase was 99, AST was 103 and ALT 195. Post treatment Alkaline Phosphatase 88, AST 89 and ALT 127. An additional 250 mg of ibogaine HCl further reduced HCV RNA IU/mL to 384,000. A final dose within this regimen of 250 mg ibogaine was administered reducing the HCV RNA IU/mL to 154,000.

HCV RNA genotype 3 = experiment: Case report, Example 4: HCV RNA after ibogaine HCl over 48 hours; settings: total of 27 mg/kg over 48 hours
Protocol: A person weighing 160 lbs tested positive HCV RNA genotype 3. RNA IU/mL was 12,600,000. Subject was administered a total of 27 mg/kg of ibogaine HCl over a period of 48 hours in the following regimen: 2 mg/kg, 2 mg/kg, 2 mg/kg, 2 mg/kg, 2 mg/kg, 2 mg/kg, 12 mg/kg, and 3 mg/kg. HCV RNA IU/mL was reduced to 50,100. Prior to ibogaine therapy patient's urine was dark and stool light. Post treatment color of urine and stool were normal.

ibogaine HCl
pain in the area of the liver following administration (HCV [1]): ceased | swelling of the liver following administration (HCV [1]): ceased | heroin use following administration (HCV [1]; using ½ gram of heroin per day): ceased | AST post treatment level (HCV [2]; pretreatment level 201): 25 | ALT post treatment level (HCV [2]; pretreatment level 410): 50 | GGT level post treatment (HCV [2]; reduced from 155): 33 | HCV RNA after an additional dose (HCV RNA genotype 1; additional 250 mg after the Day 1-14 regimen, previous level 644,000): 384,000 IU/mL | HCV RNA after the final dose (HCV RNA genotype 1; final dose of 250 mg within the regimen, previous level 384,000): 154,000 IU/mL | HCV RNA after regimen (HCV RNA genotype 1; person, 79 kg, genotype 1, total doses 10-300 mg on Days 1-14, reduced from 780,000): 644,000 IU/mL | Alkaline Phosphatase post treatment (HCV RNA genotype 1; person, genotype 1, Day 1-14 regimen, pretreatment 99): 88 | AST post treatment (HCV RNA genotype 1; person, genotype 1, Day 1-14 regimen, pretreatment 103): 89 | ALT post treatment (HCV RNA genotype 1; person, genotype 1, Day 1-14 regimen, pretreatment 195): 127 | HCV RNA after treatment (HCV RNA genotype 3; person, 160 lbs, genotype 3, before treatment 12,600,000): 50,100 IU/mL | color of urine and stool post treatment (HCV RNA genotype 3; prior to therapy urine dark and stool light): normal
